Measured values as given in the supplement of paper PMC11127212.

Assays:
[1] = retention time on BEH HILIC column (20 min gradient, 0.4 mL/min); higher = later elution; conditions: LC: HILIC
Protocol: (§1)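 Reference standards (20-100 uM) were separated by HILIC UPLC (BEH HILIC, 45 °C): acidic pH 3.0 ammonium formate/formic acid for ESI+ and basic pH 9.0 ammonium acetate/ammonia for ESI-. They were analysed on a Synapt G2-Si traveling-wave IMS-QTOF with nitrogen drift gas (WH 30 V; WV 800 m/s in ESI+ and 1000 m/s in ESI-).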

[2] = collision cross section (TWIMS, N2) of ion [M-H]-; higher = larger gas-phase ion cross section; conditions: ionization: ESI negative; LC: HILIC, pH 9.0 ammonium acetate
Protocol: as §1

[3] = collision cross section (TWIMS, N2) of ion [M+H]+; higher = larger gas-phase ion cross section; conditions: ionization: ESI positive; LC: HILIC, pH 3.0 ammonium formate
Protocol: as §1

[4] = collision cross section (TWIMS, N2) of ion [M+Na]+; higher = larger gas-phase ion cross section; conditions: ionization: ESI positive; LC: HILIC, pH 3.0 ammonium formate
Protocol: as §1, with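 “ESI-). CCS (TWCCSN2, Å2) was calibrated with Major Mix IMS/TOF and LockCCS leucine enkephalin; inter-day RSD was <1%.” for “ESI-).”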

[5] = collision cross section (TWIMS, N2) of ion [M+H-H2O]+; higher = larger gas-phase ion cross section; conditions: ionization: ESI positive; LC: HILIC, pH 3.0 ammonium formate
Protocol: as §1, with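 “ESI-). CCS (TWCCSN2, Å2) was calibrated with Major Mix IMS/TOF and LockCCS leucine enkephalin; inter-day RSD was <1%.” for “ESI-).”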

[6] = ionization: ESI negative, pH 9.0 ammonium acetate
[7] = ionization: ESI positive, pH 3.0 ammonium formate

Nc1ncnc2nc[nH]c12 [Adenine]
retention time on BEH HILIC column [1, 6]: 2.71 min | retention time on BEH HILIC column [1, 7]: 2.59 min | collision cross section [2]: 126.29 Å² | collision cross section [3]: 125.13 Å² | collision cross section [4]: 134.02 Å²

CSCC[C@H](N)C(=O)O [L-methionine]
retention time on BEH HILIC column [1, 6]: 6.8 min | retention time on BEH HILIC column [1, 7]: 6.59 min | collision cross section [2]: 132.57 Å² | collision cross section [3]: 131.48 Å² | collision cross section [4]: 135.16 Å²

CN(CC(=O)O)C(=N)N [Creatine]
retention time on BEH HILIC column [1, 7]: 7.83 min | collision cross section [3]: 122.23 Å² | collision cross section [5]: 122.05 Å²

O=C(O)/C=C\C(=O)O [Maleic acid]
retention time on BEH HILIC column [1, 7]: 0.82 min | collision cross section [5]: 114.1 Å²

O=C(O)CNC(=O)c1ccccc1 [Hippuric acid]
retention time on BEH HILIC column [1, 6]: 2.21 min | retention time on BEH HILIC column [1, 7]: 2.16 min | collision cross section [2]: 139.07 Å² | collision cross section [3]: 138.49 Å² | collision cross section [4]: 146.37 Å²

C[N+](C)(C)CC(=O)O [Betaine]
retention time on BEH HILIC column [1, 7]: 7.16 min | collision cross section [3]: 125.33 Å² | collision cross section [4]: 132.22 Å²

CN1CC(=O)NC1=N [Creatinine]
retention time on BEH HILIC column [1, 6]: 1.98 min | retention time on BEH HILIC column [1, 7]: 2.79 min | collision cross section [2]: 120.56 Å² | collision cross section [3]: 120.17 Å² | collision cross section [4]: 129.07 Å²

NCCC(=O)N[C@@H](Cc1cnc[nH]1)C(=O)O [Carnosine]
retention time on BEH HILIC column [1, 6]: 11.7 min | retention time on BEH HILIC column [1, 7]: 11.8 min | collision cross section [2]: 154.88 Å² | collision cross section [3]: 151.65 Å² | collision cross section [4]: 152.28 Å²

C/C(=C/C(=O)O)C(=O)O [Citraconic acid]
retention time on BEH HILIC column [1, 6]: 0.99 min | retention time on BEH HILIC column [1, 7]: 0.99 min | collision cross section [2]: 120.54 Å² | collision cross section [5]: 124.18 Å²

OC[C@H]1O[C@@H](n2cnc3c(O)ncnc32)[C@H](O)[C@@H]1O [Inosine]
retention time on BEH HILIC column [1, 6]: 3.4 min | retention time on BEH HILIC column [1, 7]: 2.31 min | collision cross section [2]: 159.47 Å² | collision cross section [3]: 155.86 Å² | collision cross section [4]: 166.42 Å²

O=C(O)c1ccc(O)cc1 [4-hydroxybenzoic acid]
retention time on BEH HILIC column [1, 6]: 0.67 min | retention time on BEH HILIC column [1, 7]: 0.73 min | collision cross section [2]: 123.01 Å² | collision cross section [5]: 124.91 Å²

OC[C@@H](O)[C@H](O)[C@H](O)[C@@H](O)CO [Galactitol]
retention time on BEH HILIC column [1, 6]: 4.84 min | retention time on BEH HILIC column [1, 7]: 5.56 min | collision cross section [2]: 133.44 Å² | collision cross section [4]: 140.03 Å²

Nc1nc(=O)c2nc(CNc3ccc(C(=O)N[C@@H](CCC(=O)O)C(=O)O)cc3)cnc2[nH]1 [Folic acid]
retention time on BEH HILIC column [1, 6]: 11.4 min | retention time on BEH HILIC column [1, 7]: 6.7 min | collision cross section [2]: 187.54 Å² | collision cross section [3]: 196.77 Å² | collision cross section [4]: 201.44 Å²

O=C(O)c1cccnc1C(=O)O [Quinolinic acid]
retention time on BEH HILIC column [1, 6]: 12.7 min | retention time on BEH HILIC column [1, 7]: 2.56 min | collision cross section [2]: 128.56 Å² | collision cross section [5]: 130.12 Å²

O=C(O)[C@@H]1CCCN1 [L-proline]
retention time on BEH HILIC column [1, 6]: 7.23 min | retention time on BEH HILIC column [1, 7]: 7.22 min | collision cross section [2]: 116.46 Å² | collision cross section [3]: 123.7 Å² | collision cross section [4]: 130.65 Å²

NC(=O)NC1NC(=O)NC1=O (centres undefined) [Allantoin]
retention time on BEH HILIC column [1, 6]: 1.8 min | retention time on BEH HILIC column [1, 7]: 1.56 min | collision cross section [2]: 126.16 Å² | collision cross section [4]: 136.32 Å²

CCCCCCCCCCCCCCCCCC(=O)O [Stearic acid]
retention time on BEH HILIC column [1, 6]: 0.73 min | retention time on BEH HILIC column [1, 7]: 0.75 min | collision cross section [2]: 184.42 Å² | collision cross section [4]: 186.65 Å²

CCCCCCCCCC(=O)O [Capric acid]
retention time on BEH HILIC column [1, 6]: 0.75 min | retention time on BEH HILIC column [1, 7]: 0.75 min | collision cross section [2]: 151.28 Å² | collision cross section [4]: 143.53 Å²

O=C(O)c1cccnc1 [Nicotinic acid]
retention time on BEH HILIC column [1, 6]: 2.74 min | retention time on BEH HILIC column [1, 7]: 2.74 min | collision cross section [2]: 121.16 Å² | collision cross section [3]: 122.92 Å² | collision cross section [4]: 128.31 Å²

CCCCCC(=O)O [Caproic acid]
retention time on BEH HILIC column [1, 6]: 0.9 min | retention time on BEH HILIC column [1, 7]: 1.25 min | collision cross section [2]: 129.59 Å² | collision cross section [4]: 130.13 Å²

O=C(O)c1cc(O)ccc1O [Gentisic acid]
retention time on BEH HILIC column [1, 6]: 1.41 min | retention time on BEH HILIC column [1, 7]: 1.38 min | collision cross section [2]: 126.41 Å² | collision cross section [5]: 126.57 Å²

OC[C@H]1O[C@H](O)[C@@H](O)[C@@H](O)[C@@H]1O [D-mannose]
retention time on BEH HILIC column [1, 6]: 5.43 min | retention time on BEH HILIC column [1, 7]: 3.87 min | collision cross section [2]: 132.14 Å² | collision cross section [4]: 140.11 Å²

CCCCCCCCCCCCCCCCCCCCCC(=O)O [Behenic acid]
retention time on BEH HILIC column [1, 6]: 0.73 min | retention time on BEH HILIC column [1, 7]: 0.82 min | collision cross section [2]: 197.18 Å² | collision cross section [4]: 204.26 Å²

OC[C@H]1O[C@@](CO)(O[C@H]2O[C@H](CO)[C@@H](O)[C@H](O)[C@H]2O)[C@@H](O)[C@@H]1O [Sucrose]
retention time on BEH HILIC column [1, 6]: 6.6 min | retention time on BEH HILIC column [1, 7]: 6.77 min | collision cross section [2]: 169.11 Å² | collision cross section [4]: 171.56 Å²

O=C(O)c1ccc(CO)o1 [Sumiki's acid]
retention time on BEH HILIC column [1, 6]: 3.07 min | retention time on BEH HILIC column [1, 7]: 3.12 min | collision cross section [2]: 128.72 Å² | collision cross section [4]: 129.97 Å²

CNC[C@H](O)c1ccc(O)c(O)c1 [Epinephrine]
retention time on BEH HILIC column [1, 6]: 5.61 min | retention time on BEH HILIC column [1, 7]: 5.91 min | collision cross section [2]: 140.21 Å² | collision cross section [5]: 136.45 Å²

CCCCCCCCCCCCCCCC(=O)O [Palmitic acid]
retention time on BEH HILIC column [1, 6]: 0.77 min | retention time on BEH HILIC column [1, 7]: 0.72 min | collision cross section [2]: 170.14 Å² | collision cross section [4]: 179.96 Å²

N=C(NCCC[C@H](N)C(=O)O)N[C@@H](CC(=O)O)C(=O)O [Arginosuccinic acid]
retention time on BEH HILIC column [1, 6]: 12.7 min | retention time on BEH HILIC column [1, 7]: 11.2 min | collision cross section [2]: 164.65 Å² | collision cross section [5]: 160.05 Å²

OC[C@@H](O)C(O)[C@H](O)CO [D-arabitol]
retention time on BEH HILIC column [1, 6]: 3.16 min | retention time on BEH HILIC column [1, 7]: 3.12 min | collision cross section [2]: 126.54 Å² | collision cross section [4]: 133.34 Å²

O=C(O)/C=C(\CC(=O)O)C(=O)O [trans-aconitic acid]
retention time on BEH HILIC column [1, 6]: 2.23 min | retention time on BEH HILIC column [1, 7]: 2.23 min | collision cross section [2]: 118.87 Å² | collision cross section [4]: 138.79 Å²

N[C@@H](Cc1ccc(O)cc1)C(=O)O [L-tyrosine]
retention time on BEH HILIC column [1, 6]: 6.79 min | retention time on BEH HILIC column [1, 7]: 6.67 min | collision cross section [2]: 141.65 Å² | collision cross section [3]: 141.09 Å² | collision cross section [4]: 143.2 Å²

CCCCCCCCCCCCCCCCCCC(=O)O [Nonadecanoic acid]
retention time on BEH HILIC column [1, 6]: 0.73 min | retention time on BEH HILIC column [1, 7]: 0.77 min | collision cross section [2]: 188.17 Å² | collision cross section [4]: 190.13 Å²

Nc1c(O)cccc1C(=O)O [3-hydroxyanthranilic acid]
retention time on BEH HILIC column [1, 6]: 1.12 min | retention time on BEH HILIC column [1, 7]: 0.9 min | collision cross section [2]: 126.47 Å² | collision cross section [5]: 121.78 Å²

O=C(O)[C@H]1O[C@H](O)[C@H](O)[C@@H](O)[C@@H]1O [Glucuronic acid]
retention time on BEH HILIC column [1, 6]: 8.46 min | retention time on BEH HILIC column [1, 7]: 0.72 min | collision cross section [2]: 129.91 Å² | collision cross section [5]: 134.39 Å²

COc1cc([C@H](O)C(=O)O)ccc1O [Vanillylmandelic acid]
retention time on BEH HILIC column [1, 6]: 4.41 min | retention time on BEH HILIC column [1, 7]: 2.72 min | collision cross section [2]: 144.75 Å² | collision cross section [5]: 135.63 Å²

OC[C@@H](O)[C@@H](O)[C@H](O)[C@H](O)CO [Mannitol]
retention time on BEH HILIC column [1, 6]: 4.75 min | retention time on BEH HILIC column [1, 7]: 4.8 min | collision cross section [2]: 134.82 Å² | collision cross section [4]: 140.03 Å²

Nc1nc2c(ncn2[C@@H]2O[C@@H]3COP(=O)(O)O[C@H]3[C@H]2O)c(=O)[nH]1 [cGMP]
retention time on BEH HILIC column [1, 6]: 6.9 min | retention time on BEH HILIC column [1, 7]: 6.92 min | collision cross section [2]: 172.34 Å² | collision cross section [3]: 171.22 Å² | collision cross section [4]: 178.55 Å²

O=C(O)CCCC(=O)C(=O)O [Oxoadipic acid]
retention time on BEH HILIC column [1, 6]: 5.03 min | retention time on BEH HILIC column [1, 7]: 4.84 min | collision cross section [2]: 128.96 Å² | collision cross section [4]: 136.98 Å²
